Entries after “also recorded” stand apart in the source; their conditions may differ.
Columns and labels:
SIRT1 [1] = assay: SIRT1 protein expression, immunoblot and densitometry in 3T3 L1 preadipocytes; format: cell-based; settings: 3T3 L1 preadipocytes, 60 μM, 24 hours; for SIRT1 protein expression, Derivative vs. GR24: derivative compared to GR24 (=100%)
Description: (§1) 3T3L1 cells were purchased from American Type Culture Collection (Manassas, Va., USA) and cultured in DMEM media containing 4.5 g/l glucose supplemented with 10% fetal bovine serum (Hyclone), 2 mM L-glutamine (Gibco), 100 U/ml penicillin, and 100 μg/ml streptomycin (Gibco). The cells were cultured at 37° C. in a humidified atmosphere with 10% CO2.
(§2) The 3T3L1 cells were plated at 6×10^4 cells/well in 12 well plates and incubated at 37° C. in a humidified atmosphere with 10% CO2. The media was removed after 24 hours and the cells were treated with 60 μM GR24 individually and in combination with 60 resveratrol and 60 μM pinosylvin, and incubated for 24 hours at 37° C. in a humidified atmosphere with 10% CO2. The media was removed, cells were washed with PBS, and cell lysates were collected on ice. Proteins were extracted using RIPA buffer along with protease and phosphatase inhibitors. Lysates were centrifuged for 30 min at high speed; supernatant was collected and stored at […] until further analysis. The vehicle controls were 3T3 L1 cells without any treatment with drugs or other compounds. The drugs or compounds that were used in all the experiments were dissolved or diluted in dimethylsulfoxide (DMSO) as diluent. In all experiments, the controls were treated with the same volume of DMSO as was used to dissolve drugs or compounds in compound-treated cells to show and ensure that the actual change in protein expression in different treatments was due solely to the compounds or combination of compounds and not to the DMSO.
(§3) Protein concentrations were measured using a BCA (bicinchoninic acid) protein assay kit (Cat.#23225; Pierce, Rockford, Ill.). Twenty (20) μg/lane of total cellular protein samples containing NuPAGE LDS sample buffer (Invitrogen) and reducing agent were loaded into 4-12% NuPAGE Bis-Tris gels (Invitrogen), subjected to gel electrophoresis, and transferred to polyvinylidene fluoride membranes (Amersham). For SIRT1 proteins, membranes were blocked in 0.05% TBS-Tween with 3% milk for 1 hour, incubated overnight at +4° C. with SIRT1 primary antibodies (Cat.#07-131, Millipore). For phospho-AMPKα and AMPKα proteins, blocking was done for 1 hour in 0.1% TBS-Tween with 5% milk. The membranes were incubated overnight at +4° C. with phospho-AMPKα (Cat. #2535, Cell Signaling) and AMPKα (Cat.#2532, Cell Signaling) primary antibodies. Horseradish peroxidase-conjugated anti-rabbit antibodies (Cat. #NA934V GE Health Care, Amersham, U.K) were used as secondary antibodies. For α-tubulin (loading control), membranes were blocked in 0.05% PBS-Tween with 3% milk for 1 hour, incubated with α-tubulin (Cat.# B-5-1-2, Sigma) primary antibodies for 1 hour at room temperature and horseradish peroxidase-conjugated anti-mouse (Cat. # NA 931V GE Health Care, Amersham, U.K.) IgG antibodies were used as secondary antibodies.
(§4) The membranes were developed using chemiluminescence (ECL plus, GE Health Care), and images were captured in an Image Quant RT-ECL machine (version 1.0.1; GE Health Care). Densitometry and quantification of the bands were done by applying Quantity One software (Bio-Rad). The expression levels of the proteins were normalized to α-tubulin protein levels.
3T3L1 cells were purchased from American Type Culture Collection (Manassas, Va., USA) and cultured in DMEM media containing 4.5 g/l glucose supplemented with 10% fetal bovine serum (Hyclone), 2 mM L-glutamine (Gibco) and 100 U/ml penicillin, 100 μg/ml streptomycin (Gibco). The cells were cultured at 37° C. in a humidified atmosphere with 10% CO2. 3T3L1 preadipocytes were plated at 1×10^5 cells/well in 6 well plates and incubated at 37° C. in a humidified atmosphere with 10% CO2. […] In all experiments, the controls were treated with the same volume of DMSO as was used to dissolve compounds in compound-treated cells to show and ensure that the actual change in protein expression in different treatments was only due to the compounds DMSO. […]

PGC-1α = PGC-1α protein expression, immunoblot and densitometry in 3T3 L1 preadipocytes; format: cell-based; settings: 60 μM, 24 hours; for PGC-1α protein expression, Derivative vs. GR24: derivative compared to GR24 (=100%)
Description: as §1, with “CO2. […]” for “CO2.”
as §3, §4
PGC-1α as an indicator of SIRT1 activity: PGC-1α has been extensively described as a master regulator of mitochondrial biogenesis. […] When SIRT1 protein expression is induced, it interacts with and deacetylates PGC-1α in an NAD-dependent manner. Thus SIRT1 acts as a modulator of PGC-1a (Rodgers J T et al, Nature 2005). The effects of resveratrol, a nonselective SIRT1 activator, were associated with an induction of genes for oxidative phosphorylation and mitochondrial biogenesis, and were largely explained by a resveratrol-mediated decrease in PGC-1α acetylation and an increase in PGC-1α activity (Lagouge M, Cell 2006). Therefore, PGC-1α protein expression serves as an indicator of SIRT1 activity.
3T3L1 cells were purchased from American Type Culture Collection (Manassas, Va., USA) and cultured in DMEM media containing 4.5 g/l glucose supplemented with 10% fetal bovine serum (Hyclone), 2 mM L-glutamine (Gibco) and 100 U/ml penicillin, 100 μg/ml streptomycin (Gibco). The cells were cultured at 37° C. in a humidified atmosphere with 10% CO2. 3T3L1 preadipocytes were plated at 1×10^5 cells/well in 6 well plates and incubated at 37° C. in a humidified atmosphere with 10% CO2. The media was removed after 24 hours and the cells were treated with 60 μM GR24 or with 60 μM 1A, 1B, 5A, 5B, 6A, or 7A and incubated for 24 hours at 37° C. in a humidified atmosphere with 10% CO2. In all experiments, the controls were treated with the same volume of DMSO as was used to dissolve compounds in compound-treated cells to show and ensure that the actual change in protein expression in different treatments was only due to the compounds […]. The media was removed, cells were washed with PBS and cell lysates were collected on ice. Proteins were extracted using RIPA buffer along with protease and phosphatase inhibitors. Lysates were centrifuged for 30 min at high speed; supernatant was collected and stored at −70° C. until further analysis.

[2] = test system: mitochondria of 3T3L1 preadipocytes; assay: Mitochondrial staining with MitoTracker green, confocal microscopy; format: cell-based; settings: 60 μM, 24 hours
Description: The 3T3L1 preadipocytes were plated onto Ibidi u-slide 8 well plates at 1.6×10^4 cells/well and incubated at 37° C. in a humidified atmosphere with 10% CO2. The media was removed after 24 hours, the cells were treated with 60 μM GR24 and incubated for 24 hours at 37° C. in a humidified atmosphere with 10% CO2. After 24 hours of treatment, staining of mitochondria was done using 200 nM MitoTracker Mitochondrion-Selective Probes (Green FM probes Cat.#M7514, Invitrogen) according to the manufacturer's instructions. The cells were observed using a confocal microscope and images were taken at 40× oil immersion.
Preadipocytes were treated with DMSO (Vehicle control) (FIG. 5A), 60 μM resveratrol (FIG. 5B) or 60 μM strigolactone analog GR24 (FIG. 5C) for 24 hours. Next, preadipocytes were stained with MitoTracker green and observed under a confocal microscope at 40× oil immersion. […] The white oval shaped structures are nucleus and the white thread-like structures around the nucleus in the cytoplasm are mitochondria. When compared to the control, there was an increase in mitochondrial biogenesis represented by elongated mitochondria, and an increase in mitochondrial activation represented by the intensity of fluorescence, in cells treated with resveratrol and GR24. […] Thus, GR24 enhances both biogenesis and activity of mitochondria, which is necessary to generate ATP.

phospho-AMPK = phospho-AMPK expression / AMPK activation, immunoblot in 3T3 L1 preadipocytes; format: cell-based; settings: 3T3 L1 preadipocytes, 60 μM, 24 hours
Description: as §1
as §2, with “The media was removed after 24 hours and the cells were treated with 60 μM GR24 individually and in combination with 60 resveratrol and 60 μM pinosylvin, and incubated for 24 hours at 37° C. in a humidified atmosphere with 10% CO2.” left out
as §3, §4

phospho-ACC = phospho-ACC expression, immunoblot in 3T3 L1 preadipocytes; format: cell-based; settings: 3T3 L1 preadipocytes, 60 μM, 24 hours
SIRT1 [3] = target: T1, SIRT1 (Mus musculus, UniProt Q923E4); settings: mice; cited from earlier work
T1 construct: host or cells: mice (in vivo)
T1 sequence (Q923E4 1-737): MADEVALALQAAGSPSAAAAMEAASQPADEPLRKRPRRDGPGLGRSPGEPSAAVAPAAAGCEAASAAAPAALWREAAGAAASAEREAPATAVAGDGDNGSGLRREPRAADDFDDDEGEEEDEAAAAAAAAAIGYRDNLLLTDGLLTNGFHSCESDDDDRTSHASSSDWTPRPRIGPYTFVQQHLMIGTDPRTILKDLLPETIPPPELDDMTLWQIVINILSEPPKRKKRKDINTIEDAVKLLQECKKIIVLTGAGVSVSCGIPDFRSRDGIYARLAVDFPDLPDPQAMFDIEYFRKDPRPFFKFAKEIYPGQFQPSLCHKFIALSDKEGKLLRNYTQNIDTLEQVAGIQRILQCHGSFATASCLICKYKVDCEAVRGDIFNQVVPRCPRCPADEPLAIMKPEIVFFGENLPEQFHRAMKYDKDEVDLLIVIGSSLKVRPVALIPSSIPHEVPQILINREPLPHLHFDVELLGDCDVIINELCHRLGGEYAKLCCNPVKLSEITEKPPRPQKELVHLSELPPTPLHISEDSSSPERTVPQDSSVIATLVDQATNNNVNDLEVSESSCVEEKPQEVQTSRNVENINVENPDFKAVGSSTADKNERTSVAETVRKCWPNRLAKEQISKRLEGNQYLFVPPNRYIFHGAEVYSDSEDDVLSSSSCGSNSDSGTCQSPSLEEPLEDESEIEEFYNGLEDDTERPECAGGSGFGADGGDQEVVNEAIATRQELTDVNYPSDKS

Row | SMILES | SIRT1 protein expression compared to control (100%) (SIRT1 [1]) | SIRT1 protein expression, Derivative vs. GR24 (SIRT1 [1]) | PGC-1α protein expression compared to control (100%) (PGC-1α) | PGC-1α protein expression, Derivative vs. GR24 (PGC-1α) | mitochondrial activation (intensity of fluorescence) compared to control [2] | mitochondrial biogenesis (elongated mitochondria) compared to control [2] | phospho-AMPK expression compared to control (phospho-AMPK) | phospho-ACC expression (phosphorylation of ACC) compared to control (phospho-ACC) | SIRT1 activity (SIRT1 [3]) | genes responsible for mitochondrial biogenesis (SIRT1 [3])
1 | CCC1=C[C@H](O/C=C2/C(=O)O[C@@H]3c4ccccc4C[C@H]23)OC1=O [Compound 1A] | 1A 186% | +11% | 1A 186% | +11% | – | – | – | – | – | –
2 | CCC1=C[C@H](O/C=C2/C(=O)O[C@H]3c4ccccc4C[C@@H]23)OC1=O [Compound 1B] | 1B 215% | +31% | 1B 215% | +31% | – | – | – | – | – | –
3 | CC1=C[C@H](O/C=C2/C(=O)O[C@H]3c4c(C)cccc4C[C@@H]23)OC1=O [Compound 5B] | 5B 327% | +48% | 5B 327% | +48% | – | – | – | – | – | –
4 | COc1cccc2c1[C@H]1OC(=O)/C(=C/O[C@H]3C=C(C)C(=O)O3)[C@H]1C2 [Compound 6A] | 6A 206% | +38% | 6A 206% | +38% | – | – | – | – | – | –
5 | COc1ccc(C)c2c1C[C@@H]1/C(=C\O[C@H]3C=C(C)C(=O)O3)C(=O)O[C@H]21 [Compound 7A] | 7A 218% | +30% | 7A 218% | +30% | – | – | – | – | – | –
6 | Oc1ccc(/C=C/c2cc(O)cc(O)c2)cc1 [resveratrol, 3,5,4″-trans-trihydroxystilbene] | – | – | – | – | increase | increase | significant increase; also recorded: increased | no change | increases | stimulates

Source: patent publication US20140142170A1, “COMPOSITION AND METHOD FOR INFLUENCING ENERGY METABOLISM AND TREATING METABOLIC AND OTHER DISORDERS” (SIRTUIN VALLEY OY, priority 2010, published 2014)
